Measured values reported in ChEMBL document CHEMBL1135808, “A new type of mixed anhydride and its applications to the synthesis of 7-substituted 8-chloro-5,5-dioxoimidazo[1,2-b][1,4,2]benzodithiazines with in vitro antitumor activity” (2002).

Experiments:
Assay type in all cases: functional
T47D = experiment: In vitro total growth inhibition against breast cancer […] cell lines was reported.; details: Homo sapiens, read-out: Log TGI (converted)
BT-549 [1] = experiment: In vitro growth inhibition against breast cancer BT 549 cell line was reported.; details: Homo sapiens
BT-549 [2] = experiment: In vitro total growth inhibition against breast cancer BT 549 cell line was reported.; details: Homo sapiens, read-out: Log TGI (converted)
MCF7 = experiment: In vitro growth inhibition against breast cancer MCF 7 cell line was reported.; details: Homo sapiens
MDA-MB-231 = experiment: In vitro growth inhibition against breast cancer MDA-MB-231/ATCC cell line was reported.; details: Homo sapiens
MDA-N = experiment: In vitro growth inhibition against breast cancer MDA-N cell line was reported.; details: Homo sapiens
NCI/ADR-RES = experiment: In vitro growth inhibition against breast cancer NCI/ADR-RES cell line was reported.; details: Homo sapiens
COLO 205 = experiment: In vitro total growth inhibition against colon cancer COLO 205 cell lines was reported.; details: Homo sapiens, read-out: Log TGI (converted)
HCT-116 [3] = experiment: In vitro growth inhibition against colon cancer HCT116 cell line was reported.; details: Homo sapiens
HCT-116 [4] = experiment: In vitro total growth inhibition against colon cancer HCT116 cell lines was reported.; details: Homo sapiens, read-out: Log TGI (converted)
SF-295 [5] = experiment: In vitro growth inhibition against CNS cancer SF-295 cell line was reported.; details: Homo sapiens
SF-295 [6] = experiment: Log of molar concentration leading to 50% cell death against CNS cancer SF-295 cell line was reported; details: Homo sapiens, read-out: Log LC50 (the source's name) (converted)
SF-539 [7] = experiment: In vitro growth inhibition against CNS cancer SF-539 cell line was reported.; details: Homo sapiens
SF-539 [8] = experiment: Log of molar concentration leading to 50% cell death against CNS cancer SF-539 cell line was reported; details: Homo sapiens, read-out: Log LC50 (the source's name) (converted)
SNB-19 = experiment: In vitro growth inhibition against CNS cancer SNB-19 cell line was reported.; details: Homo sapiens
U-251 [9] = experiment: In vitro growth inhibition against CNS cancer U251 cell line was reported.; details: Homo sapiens
U-251 [10] = experiment: In vitro total growth inhibition against CNS cancer U251 cell lines was reported.; details: Homo sapiens, read-out: Log TGI (converted)
KM12 = experiment: In vitro total growth inhibition against colon cancer KM12 cell lines was reported.; details: Homo sapiens, read-out: Log TGI (converted)
K562 = experiment: In vitro growth inhibition against leukemia K-562 cell line was reported.; details: Homo sapiens
CCRF-CEM = experiment: In vitro growth inhibition against leukemia CCRF-CEM cell line was reported.; details: Homo sapiens
RPMI-8226 = experiment: In vitro total growth inhibition against leukemia […] cell lines was reported.; details: Homo sapiens, read-out: Log TGI (converted)
SR = experiment: In vitro growth inhibition against leukemia SR cell line was reported.; details: Homo sapiens
M14 = experiment: In vitro growth inhibition against melanoma M14 cell line was reported.; details: Homo sapiens
Malme-3M = experiment: In vitro growth inhibition against melanoma MALME 3M cell line was reported.; details: Homo sapiens
UACC-257 = experiment: In vitro total growth inhibition against melanoma UACC-257 cell line was reported.; details: Homo sapiens
HOP-62 = experiment: Log of molar concentration leading to 50% cell death against non-small-cell lung cancer HOP-62 cell line was reported; details: Homo sapiens, read-out: Log LC50 (the source's name) (converted)
NCI-H46 = experiment: Log of molar concentration leading to 50% cell death against non-small-cell lung cancer […] cell line was reported; details: Homo sapiens, read-out: Log LC50 (the source's name) (converted)
NCI-H522 [11] = experiment: Log of molar concentration leading to 50% cell death against non-small-cell lung cancer NCI-522 cell line was reported; details: Homo sapiens, read-out: Log LC50 (the source's name) (converted)
NCI-H522 [12] = experiment: In vitro total growth inhibition against non-small-cell lung cancer NCI-522 cell lines was reported.; details: Homo sapiens, read-out: Log TGI (converted)
NCI-H23 = experiment: In vitro total growth inhibition against non-small-cell lung cancer NCI-H23 cell lines was reported.; details: Homo sapiens, read-out: Log TGI (converted)

Which results are given for Cc1ccc2cccc(NC(=O)c3cc4c(cc3Cl)Sc3nccn3S4(=O)=O)c2n1?
TGI (T47D): 6.31 µM; GI50 (BT-549 [1]): 11.5 µM; TGI (BT-549 [2]): 60.3 µM; GI50 (MCF7): 3.24 µM; GI50 (MDA-MB-231): 11.5 µM; GI50 (MDA-N): 13.8 µM; GI50 (NCI/ADR-RES): 14.5 µM; TGI (COLO 205): 30.9 µM; GI50 (HCT-116 [3]): 4.57 µM; TGI (HCT-116 [4]): 17 µM; GI50 (SF-295 [5]): 11.5 µM; CC50 (SF-295 [6]): 53.7 µM; GI50 (SF-539 [7]): 1820 nM; CC50 (SF-539 [8]): 25.7 µM; GI50 (SNB-19): 10.2 µM; GI50 (U-251 [9]): 3.47 µM; TGI (U-251 [10]): 14.5 µM; TGI (KM12): 19.1 µM; GI50 (K562): 4.07 µM; GI50 (CCRF-CEM): 2510 nM; TGI (RPMI-8226): 3.8 µM; GI50 (SR): 2240 nM; GI50 (M14): 7.24 µM; GI50 (Malme-3M): 17 µM; GI50 (UACC-257): 13.8 µM; CC50 (HOP-62): 39.8 µM; CC50 (NCI-H46): 26.9 µM; CC50 (NCI-H522 [11]): 66.1 µM; TGI (NCI-H522 [12]): 26.3 µM; TGI (NCI-H23): 56.2 µM
